According to the Deep4Chem optical property database:
Several values for one entry are separate records, joined by “and”; a condition that tells them apart may be missing. Equal entries are not always repeated. Blank lines part the entries; values can stand above or below the compound they belong to.

Assay: solvent given as SMILES

emission maximum (in C1CCOC1): 416 nm
Compound: CCCCC1(CCCC)c2cc(C#Cc3ccc(C=C(c4ccccc4)c4ccccc4)cc3)ccc2-c2ccc(C#Cc3ccc(C=C(c4ccccc4)c4ccccc4)cc3)cc21

emission maximum (in CS(C)=O): 407 nm
Compound: Fc1ccccc1-c1nc2sc3ccccc3c2s1

emission maximum (in ClCCl): 500 nm
Compound: CCCCOc1c(-c2ccc(C=O)cc2)cc2cc(-c3ccc(C=O)cc3)c(OCCCC)c3c4c(OCCCC)c(-c5ccc(C=O)cc5)cc5cc(-c6ccc(C=O)cc6)c(OCCCC)c(c1c23)c54

emission maximum (in CCO): 353 nm
Compound: c1ccc(N(c2ccccc2)c2ccccc2)cc1

emission maximum (in CCOC(C)=O): 441 nm
Compound: CCn1c(-c2ccc(-c3ccc4c(c3)C(c3ccccc3)(c3ccccc3)c3ccccc3-4)cc2)c(-c2ccc3ccccc3c2)c(-c2ccc3ccccc3c2)c1-c1ccc(-c2ccc3c(c2)C(c2ccccc2)(c2ccccc2)c2ccccc2-3)cc1

Compound: N#CC(C#N)=Cc1cn(-c2ccccc2)nc1-c1ccccc1
emission maximum (in C1CCOC1): 427 nm | emission maximum (in C1COCCO1): 426 nm | emission maximum (in CCO): 426 nm | emission maximum (in CCOC(C)=O): 427 nm | emission maximum (in CN(C)C=O): 438 nm | emission maximum (in CO): 426 nm | emission maximum (in CS(C)=O): 443 nm | emission maximum (in Cc1ccccc1): 430 nm | emission maximum (in ClC(Cl)Cl): 432 nm | emission maximum (in ClCCl): 430 nm

emission maximum (in ClCCl): 418 nm
Compound: CCOC(=O)c1c(-c2c(Cl)c3cc(C)ccc3oc2=O)nn(-c2cccc(C)c2)c1C(=O)OCC

emission maximum (in ClC(Cl)Cl): 647 nm
Compound: F[B-]1(F)n2c(cc3c2-c2ccccc2CC3)C(c2ccc(I)cc2)=C2C=C3CCc4ccccc4C3=[N+]21

emission maximum (in O): 435 nm
Compound: O=S(=O)([O-])c1ccc([O-])c2ccccc12

Compound: CC1(C)c2ccccc2N(c2ccc3nc4c5ccc(N6c7ccccc7C(C)(C)c7ccccc76)cc5c5cc(N6c7ccccc7C(C)(C)c7ccccc76)ccc5c4nc3c2)c2ccccc21
emission maximum (in Cc1ccccc1): 605 nm | emission maximum (in c1cc(-c2cccc(-n3c4ccccc4c4ccccc43)c2)cc(-n2c3ccccc3c3ccccc32)c1): 590 nm

Compound: CC(C)(C)c1ccc2c(c1)c1cc(C(C)(C)C)ccc1n2-c1ccc(S(=O)(=O)c2ccc(S(=O)(=O)c3ccc(-n4c5ccc(C(C)(C)C)cc5c5cc(C(C)(C)C)ccc54)cc3)cc2)cc1
emission maximum (in Cc1ccccc1): 446 nm

emission maximum (in CC#N): 532 nm | emission maximum (in CCCCCC): 538 nm | emission maximum (in CCOC(C)=O): 532 nm | emission maximum (in CO): 531 nm | emission maximum (in ClCCl): 537 nm
Compound: F[B-]1(F)n2c(Cl)ccc2C(c2c(Cl)cccc2Cl)=C2C=CC(NCc3ccccc3)=[N+]21

emission maximum (in C1COCCO1): 554 nm | emission maximum (in CC#N): 570 nm | emission maximum (in CCO): 580 nm | emission maximum (in CCOC(C)=O): 558 nm | emission maximum (in ClC(Cl)Cl): 550 nm | emission maximum (in c1ccccc1): 549 nm
Compound: CCOC(=O)c1sc2nc(-c3ccccc3)c(C)c(C#N)c2c1N

emission maximum (in ClCCl): 570 nm
Compound: Cc1c2ccc(=[N+]3CCCCC3)cc-2oc2cc(N3CCCCC3)ccc12

Compound: CN(C)c1ccc2c(c1)COc1c-2oc2ccccc2c1=O
emission maximum (in C1CCCCC1): 411.43 nm | emission maximum (in CC#N): 489 nm and 491.43 nm | emission maximum (in CCOC(C)=O): 464 nm and 461.07 nm | emission maximum (in Cc1ccccc1): 441 nm

Compound: c1ccc(-c2nc3c(ccc4[nH]ccc43)o2)cc1
emission maximum (in C1CCCCC1): 372 nm | emission maximum (in C1COCCO1): 409 nm | emission maximum (in CC#N): 427 nm | emission maximum (in CO): 437 nm | emission maximum (in Cc1ccccc1): 390 nm | emission maximum (in O): 459 nm

emission maximum (in CS(C)=O): 412 nm
Compound: COc1cccc(-c2nc3sc4ccccc4c3s2)c1

emission maximum (in C1CCOC1): 605 nm
Compound: CCCCCOc1cc2oc(=O)c3c4ccc(N(c5ccc(C)cc5)c5ccc(C)cc5)cc4c4ccc5cccc6c(c1)c2c3c4c56

emission maximum (in ClC(Cl)Cl): 482 nm
Compound: CCN(CC)c1ccc2cc(-c3ccc(-c4ccc5c6ccccc6c6c7cc(-c8ccc(-c9cc%10ccc(N(CC)CC)cc%10oc9=O)cc8)ccc7c7ccccc7c6c5c4)cc3)c(=O)oc2c1

Compound: CC(C)(C)c1ccc2c(c1)sc1[n+]2[B-](F)(F)n2c(c3cccc4c(Br)ccc2c43)=C1C#N
emission maximum (in C1CCOC1): 563 nm | emission maximum (in CC#N): 558 nm | emission maximum (in CCCCCC): 558 nm | emission maximum (in Cc1ccccc1): 563 nm | emission maximum (in ClCCl): 560 nm

emission maximum (in ClC(Cl)Cl): 555 nm
Compound: CCn1c2ccccc2oc2c(C#N)c3oc4ccccc4oc3c(C#N)c21

emission maximum (in CN(C)C=O): 536 nm
Compound: CCCCCCCCCCCCN1C(=O)c2ccc3c4ccc5c6c(ccc(c7ccc(c2c37)C1=O)c64)C(=O)N(CCCCCCCCCCCC)C5=O

emission maximum (in ClC(Cl)Cl): 567 nm
Compound: N#Cc1nc(N(Cc2ccccc2I)Cc2ccccc2I)c(C#N)nc1N(Cc1ccccc1I)Cc1ccccc1I

emission maximum (in C1CCCCC1): 380 nm | emission maximum (in CO): 400 nm
Compound: COc1ccc(/C=C(\C)c2nc3ccccc3o2)cc1

emission maximum (in ClCCl): 520 nm
Compound: CCCCCCCCCCCCN1C(=O)c2c(c3ccc4cc(-c5ccc(C#N)cc5)c(OC)cc4c3c3c2ccc2cc(-c4ccc(C#N)cc4)c(OC)cc23)C1=O

emission maximum (in ClC(Cl)Cl): 373 nm
Compound: CCCCc1cc(-c2cccc(COC)c2)oc1-c1cccc(-c2cc(CCCC)c(-c3cccc(-c4oc(-c5cccc(-c6oc(-c7cccc(COC)c7)cc6CCCC)c5)cc4CCCC)c3)o2)c1

emission maximum (in C1CCCCC1): 434.97 nm | emission maximum (in C1COCCO1): 443.26 nm | emission maximum (in CC#N): 449.03 nm | emission maximum (in CC(C)O): 448.03 nm | emission maximum (in CCCCCC): 434.22 nm | emission maximum (in ClC(Cl)Cl): 446.43 nm | emission maximum (in c1ccccc1): 441.7 nm
Compound: CC1(C)CCc2c(c3ccccc3c3nc4c(nc23)c2c(c3ccccc34)OC(C)(C)CC2)O1

Compound: COc1ccc(C2=C(c3ccc(OC)cc3)C(c3ccccc3)=[N+]3C2=Nc2c(-c4ccc(OC)cc4)c(-c4ccc(OC)cc4)c(-c4ccccc4)n2[B-]3(F)F)cc1
emission maximum (in Cc1ccccc1): 750 nm

emission maximum (in C1CCOC1): 465 nm
Compound: N#Cc1c(N2CCCCC2)cc(-c2ccc3ccccc3c2)c2c1Cc1ccccc1-2

emission maximum (in CCCCCC): 430 nm
Compound: CC(C)[Si](C#Cc1ccc(C#C[Si](C(C)C)(C(C)C)C(C)C)c2nc3c(nc12)Cc1ccccc1-3)(C(C)C)C(C)C

emission maximum (in CO): 540 nm | emission maximum (in CS(C)=O): 510 nm | emission maximum (in ClC(Cl)Cl): 500 nm | emission maximum (in c1ccccc1): 500 nm
Compound: CCC1=C(C)C(=O)n2c1cc1c(C)c(CC)c(C)n1c2=O

emission maximum (in ClCCl): 373 nm
Compound: CCCCCCCCOc1ccc(C#Cc2ccc3oc4ccccc4c3c2)c(OCCCCCCCC)c1

Compound: CC1(C)c2ccccc2N(c2ccc(-c3nc4c(C#N)ccc(C#N)c4nc3-c3ccc(N4c5ccccc5C(C)(C)c5ccccc54)cc3)cc2)c2ccccc21
emission maximum (in Cc1ccccc1): 663 nm

Compound: Cc1ccc([B-]2(c3ccc(C)cc3)n3nc(C(F)(F)F)cc3-c3c4ccccc4cc[n+]32)cc1
emission maximum (in C1CCCCC1): 407 nm | emission maximum (in Cc1ccccc1): 407 nm | emission maximum (in ClCCl): 407 nm

Compound: c1ccc(-n2c(-c3cccc4ccccc34)nc3c4ccccc4c4ccccc4c32)cc1
emission maximum (in C1CCOC1): 413.91 nm | emission maximum (in CCCCCC): 384 nm | emission maximum (in CS(C)=O): 423 nm | emission maximum (in Cc1ccccc1): 410 nm | emission maximum (in ClCCl): 415.6 nm

emission maximum (in CS(C)=O): 386.5 nm
Compound: Cc1ccc2nc(-c3cc(-c4nc5ccc(C)cc5[nH]4)cc(-c4nc5ccc(C)cc5[nH]4)c3)[nH]c2c1

emission maximum (in ClCCl): 538 nm
Compound: C(#Cc1cccc2nsnc12)c1ccc(-n2c3ccccc3c3ccccc32)cc1

Compound: CC1(C)c2ccccc2N(c2ccc(C(=CC#N)c3ccc(N4c5ccccc5C(C)(C)c5ccccc54)cc3)cc2)c2ccccc21
emission maximum (in Cc1ccccc1): 519 nm

emission maximum (in ClC(Cl)Cl): 500 nm
Compound: CCCCCCN1C(=O)c2cccc3cc(/N=C\c4cn(C)c5ccccc45)cc(c23)C1=O

emission maximum (in ClCCl): 407 nm
Compound: COc1ccc(C(=O)NC(C)(C)C)c2c1ccc1c3ccccc3c3ccccc3c12

emission maximum (in C1CCCCC1): 318.98 nm
Compound: Cc1ccccc1-c1ccccc1C

emission maximum (in ClC(Cl)Cl): 469.48 nm
Compound: CCCCCCn1c2cc(/C=C(\C#N)c3ccccc3)ccc2c2ccc(/C=C(\C#N)c3ccccc3)cc21

Compound: CCN1/C(=C\c2c(-c3ccc(N(C)C)cc3)c(=O)c2=O)C=Cc2ccccc21
emission maximum (in C1CCCCC1): 427 nm | emission maximum (in Cc1ccccc1): 434 nm | emission maximum (in ClCCl): 588 nm

Compound: N#CC(C#N)=C(/C=C/c1cn(-c2ccccc2)nc1-c1ccccc1)c1ccccc1
emission maximum (in C1CCOC1): 459 nm | emission maximum (in C1COCCO1): 461 nm | emission maximum (in CCO): 497 nm | emission maximum (in CCOC(C)=O): 487 nm | emission maximum (in CN(C)C=O): 504 nm | emission maximum (in CO): 496 nm | emission maximum (in CS(C)=O): 509 nm | emission maximum (in Cc1ccccc1): 460 nm | emission maximum (in ClC(Cl)Cl): 488 nm | emission maximum (in ClCCl): 489 nm

Compound: CCCCC(CC)CN1C(=O)c2cccc3c(C#Cc4ccc(N(c5ccccc5)c5ccccc5)cc4)ccc(c23)C1=O (configuration not stated)
emission maximum (in C1CCCCC1): 462 nm | emission maximum (in C1CCOC1): 621 nm | emission maximum (in CC#N): 547 nm | emission maximum (in Cc1ccccc1): 512 nm | emission maximum (in ClC(Cl)Cl): 582 nm

emission maximum (in ClCCl): 606 nm
Compound: CCCCCCCCCCCCCCCCCCOC(=O)/C=C/C1=CC2=C(c3c(C)cc(C)cc3C)c3cc(/C=C/C(=O)OCCCCCCCCCCCCCCCCCC)cn3[B-](F)(F)[N+]2=C1

emission maximum (in C1COCCO1): 564 nm | emission maximum (in CC#N): 574 nm | emission maximum (in CCO): 570 nm | emission maximum (in CCOC(C)=O): 566 nm | emission maximum (in O): 577 nm
Compound: COc1ccc(/C=C/C2=NC(=C\c3ccncc3)/C(=O)N2C)cc1

emission maximum (in ClCCl): 437 nm
Compound: COc1ccc(C#Cc2cc(C#Cc3ccc(OC)cc3)c(C#Cc3ccc(OC)cc3)c(C#Cc3ccc(OC)cc3)c2C#Cc2ccc(OC)cc2)cc1

Compound: CCCCCCOc1ccc(N(c2ccc(OCCCCCC)cc2)c2ccc(-c3sc(-c4ccc(N(c5ccc(OCCCCCC)cc5)c5ccc(OCCCCCC)cc5)cc4)c4nc(-c5ccccc5)c(-c5ccccc5)nc34)cc2)cc1
emission maximum (in C1CCOC1): 770 nm | emission maximum (in CC(C)=O): 793 nm | emission maximum (in CCOC(C)=O): 768 nm | emission maximum (in CCOCC): 751 nm | emission maximum (in CN(C)C=O): 806 nm | emission maximum (in Cc1ccccc1): 748 nm | emission maximum (in ClC(Cl)Cl): 777 nm | emission maximum (in ClCCl): 793 nm

Compound: O=Cc1ccc(-c2ccc(C3=CCC(c4ccccc4)CC3)s2)s1 (configuration not stated)
emission maximum (in C1CCOC1): 446 nm | emission maximum (in CC#N): 483 nm | emission maximum (in CCCCCC): 443 nm | emission maximum (in CCO): 498 nm | emission maximum (in OCCOCCO): 506 nm | emission maximum (in c1ccncc1): 481 nm

emission maximum (in C1CCOC1): 466.72 nm | emission maximum (in CC#N): 497.22 nm | emission maximum (in CCCCCC): 426 nm
Compound: CC(C)(C)c1cc2cc(N(c3ccccc3)c3ccccc3)c3cc(C(C)(C)C)cc4cc(N(c5ccccc5)c5ccccc5)c(c1)c2c43

Compound: CC1(C)OB(c2cc3ccc4cccc5ccc(c2)c3c45)OC1(C)C
emission maximum (in Cc1ccccc1): 386 nm
